Values quoted from earlier work in PMC5594551, “Heterogeneous drug penetrance of veliparib and carboplatin measured in triple negative breast tumors” (Breast Cancer Research : BCR, 2017).

Tests used:
[1] = test system: MDA-MB-436; settings: MDA-MB-436, BRCA1-mutated; ref [24]; cited from earlier work
[2] = test system: HCC70; settings: ref [24]; cited from earlier work

In the case of `O=C(c1cc(Cc2n[nH]c(=O)c3ccccc23)ccc1F)N1CCN(C(=O)C2CC2)CC1` [olaparib], the Sensitivity in vitro [1] is given as “sensitivity” and the Sensitivity in vitro [2] is given as “sensitive”.
